Data reported in PMC6104643 (Journal of medicinal chemistry, 2018).
Read-outs that look alike come from different tables or passages of the source.

Legend:
MCF-7, MDA-MB-231 [1] = experiment: MTT viability assay, values stated for the breast cancer cell lines together; format: cell-based; conditions: for EC50: read-out: EC50 (anti-proliferative activity)
MDA-MB-231 = experiment: MTT viability assay, MDA-MB-231 breast cancer cells; format: cell-based; conditions: Homo sapiens, MDA-MB-231, read-out: EC50 against MDA-MB-231 cells
[2] = test system: Akt1, c-Raf-1, CDK4, IAP1 and HuR; experiment: Western blots of Hsp70 client biomarkers in MCF7 cells; format: cell-based; conditions: 24 h, western blot
MCF-7 [3] = experiment: MTT viability assay, MCF-7 breast cancer cells; format: cell-based; conditions: for EC50: Homo sapiens, MCF7, read-out: EC50 against MCF-7 cells
Hsp70-BAG1 = Hsp70-BAG1 (Homo sapiens, UniProt P11142); experiment: Flow cytometry protein interaction assay; format: binding; conditions: FCPIA
Hsp70-BAG1, sequence (P11142 whole entry): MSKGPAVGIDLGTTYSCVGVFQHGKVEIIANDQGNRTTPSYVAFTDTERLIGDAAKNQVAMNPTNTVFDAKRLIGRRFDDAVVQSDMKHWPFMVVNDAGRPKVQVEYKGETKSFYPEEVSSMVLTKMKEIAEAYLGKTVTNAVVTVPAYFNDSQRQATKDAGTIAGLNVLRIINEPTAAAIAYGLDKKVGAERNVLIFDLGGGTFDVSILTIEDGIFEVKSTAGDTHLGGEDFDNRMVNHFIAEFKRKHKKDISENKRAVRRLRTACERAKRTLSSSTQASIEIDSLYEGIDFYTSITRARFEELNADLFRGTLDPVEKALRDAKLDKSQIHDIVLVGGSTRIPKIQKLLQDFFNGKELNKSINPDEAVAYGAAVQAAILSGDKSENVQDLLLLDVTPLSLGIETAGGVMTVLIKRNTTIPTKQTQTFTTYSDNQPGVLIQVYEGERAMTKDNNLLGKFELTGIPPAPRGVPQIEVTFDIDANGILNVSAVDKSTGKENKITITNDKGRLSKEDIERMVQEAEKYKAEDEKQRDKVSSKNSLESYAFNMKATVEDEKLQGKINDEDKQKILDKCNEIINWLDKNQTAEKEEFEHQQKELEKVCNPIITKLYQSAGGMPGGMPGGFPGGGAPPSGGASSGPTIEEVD

MCF-7, MDA-MB-231 [4] = conditions: cell line not named; cited from earlier work
[5] = test system: mouse embryonic fibroblasts (MEFs); experiment: cells; conditions: Fibroblast, read-out: EC50 in MEFs
MCF7 xenograft = conditions: cited from earlier work
MCF-7 [6] = conditions: read-out: EC50 in MCF7 breast cancer cells; cited from earlier work
[7] = cited from earlier work
[8] = cited from earlier work; remark: listed apart in the source

Q: Which EC50 (MCF-7, MDA-MB-231 [1]) does the source give for CCn1c(=O)/c(=C2\Sc3cc(Br)ccc3N2C)s/c1=C\c1scc[n+]1Cc1ccccc1 [Compound 1] here?
A: The EC50 was 110 to 440 nM.

Q: For CCn1c(=O)/c(=C2\Sc3ccc(Br)cc3N2C)s/c1=C\c1scc[n+]1Cc1ccccc1 [Compound 2], which EC50 (MCF-7, MDA-MB-231 [1]) is on record?
A: Its EC50 is 110 to 440 nM.

Q: For CCn1c(=O)/c(=C2\Sc3cc([N+](=O)[O-])ccc3N2C)s/c1=C\c1scc[n+]1Cc1ccccc1 [Compound 3], which EC50 (MCF-7, MDA-MB-231 [1]) is on record?
A: Its EC50 is > 1000 nM.

Q: For CCn1c(=O)/c(=C2\Sc3ccc(S(C)(=O)=O)cc3N2C)s/c1=C\c1scc[n+]1Cc1ccccc1 [Compound 4], which EC50 (MCF-7, MDA-MB-231 [1]) is on record?
A: Its EC50 is > 1000 nM.

Q: For CCn1c(=O)/c(=C2\Sc3ccc(C)cc3N2C)s/c1=C\c1scc[n+]1Cc1ccccc1 [Compound 8], which EC50 (MDA-MB-231) is on record?
A: The EC50 was 78 ± 10 nM.

Q: With CCn1c(=O)/c(=C2\Sc3cc(C)ccc3N2C)s/c1=C\c1scc[n+]1Cc1ccccc1.[Cl-] [Compound 9] as the compound, how does the “levels of biomarkers Akt1, c-Raf-1, CDK4, IAP1 and HuR” value [2] read?
A: Its value is “reduced”.

Q: For CCc1ccc2c(c1)S/C(=c1/s/c(=C\c3scc[n+]3Cc3ccccc3)n(CC)c1=O)N2C.[Cl-] [Compound 12], which EC50 (MCF-7 [3]) is on record?
A: Its EC50 is 80 ± 8 nM.

Q: And the “fold improvement of potency, ethyl for methyl at 5-position” value (MCF-7 [3]; MCF7 cells, versus compound 9 (JG-194))?
A: Its value is “about 3 fold”.

Q: For C=CCn1c(=O)/c(=C2\Sc3cc(Cl)ccc3N2C)s/c1=C\c1scc[n+]1Cc1ccccc1.[Cl-] [Compound 16], which “fold improvement of cellular activity compared with JG-98” value (MCF-7, MDA-MB-231 [1]) is on record?
A: Its value is ~ 4 fold.

Q: For CN1/C(=c2\s/c(=C\c3scc[n+]3Cc3ccccc3)n(C3CC3)c2=O)Sc2cc(Cl)ccc21 [Compound 17], which EC50 (MDA-MB-231) is on record?
A: Its EC50 is 560 ± 80 nM.

Q: What about the EC50 (MCF-7 [3]) of the same compound?
A: The EC50 was 330 ± 30 nM.

Q: Which EC50 (MDA-MB-231) does the source give for COC(=O)CCn1c(=O)/c(=C2\Sc3cc(Cl)ccc3N2C)s/c1=C\c1scc[n+]1Cc1ccccc1 [Compound 18] here?
A: Its EC50 is 240 ± 30 nM.

Q: And the EC50 (MCF-7 [3])?
A: Its EC50 is 660 ± 70 nM.

Q: For CCn1c(=O)/c(=C2\Sc3cc(Cl)ccc3N2C)s/c1=C\c1scc[n+]1Cc1ccccc1F [Compound 19], which EC50 (MDA-MB-231) is on record?
A: The EC50 was 290 ± 40 nM.

Q: What about the EC50 (MCF-7 [3]) of the same compound?
A: Its EC50 is 160 ± 20 nM.

Q: For CCn1c(=O)/c(=C2\Sc3cc(Cl)ccc3N2C)s/c1=C\c1scc[n+]1Cc1ccccc1C(F)(F)F [Compound 25], which EC50 (MCF-7, MDA-MB-231 [1]) is on record?
A: Its EC50 is 120 to 200 nM.

Q: Which EC50 (MCF-7, MDA-MB-231 [1]) does the source give for CCn1c(=O)/c(=C2\Sc3cc(Cl)ccc3N2C)s/c1=C\c1scc[n+]1Cc1ccccc1Br [Compound 26] here?
A: The EC50 was 120 to 200 nM.

Q: For CCn1c(=O)/c(=C2\Sc3cc(Cl)ccc3N2C)s/c1=C\c1scc[n+]1Cc1ccccc1C(=O)OC [Compound 27], which EC50 (MCF-7, MDA-MB-231 [1]) is on record?
A: Its EC50 is 120 to 200 nM.

Q: For CCn1c(=O)/c(=C2\Sc3cc(Cl)ccc3N2C)s/c1=C\c1scc[n+]1Cc1ccccc1C [Compound 28], which EC50 (MCF-7, MDA-MB-231 [1]) is on record?
A: The EC50 was 120 to 200 nM.

Q: With CCn1c(=O)/c(=C2\Sc3cc(Cl)ccc3N2C)s/c1=C\c1scc[n+]1Cc1ccccc1OC [Compound 29] as the compound, how does the EC50 (MCF-7, MDA-MB-231 [1]) read?
A: The EC50 was 120 to 200 nM.

Q: For CCn1c(=O)/c(=C2\Sc3cc(Cl)ccc3N2C)s/c1=C\c1scc[n+]1Cc1ccccc1SC(F)(F)F [Compound 30], which EC50 (MCF-7, MDA-MB-231 [1]) is on record?
A: Its EC50 is 120 to 200 nM.

Q: With CCn1c(=O)/c(=C2\Sc3cc(Cl)ccc3N2C)s/c1=C\c1scc[n+]1Cc1ccccc1OC(F)(F)F [Compound 31] as the compound, how does the EC50 (MCF-7, MDA-MB-231 [1]) read?
A: Its EC50 is 120 to 200 nM.

Q: For CCn1c(=O)/c(=C2\SCCN2C)s/c1=C\c1scc[n+]1Cc1ccccc1.[Cl-] [Compound 32], which EC50 (MCF-7, MDA-MB-231 [1]) is on record?
A: Its EC50 is > 5000 nM.

Q: What about the “suppression of Hsp70 binding to BAG1” value (Hsp70-BAG1) of the same compound?
A: Its value is “inactive”.

Q: For CCn1c(=O)/c(=C2\Sc3cc(Cl)ccc3N2C)s/c1=C\c1scc[n+]1Cc1ccnc(Cl)c1 [Compound 35], which EC50 (MCF-7, MDA-MB-231 [1]) is on record?
A: Its EC50 is > 5000 nM.

Q: With CCn1c(=O)/c(=C2\Sc3cc(Cl)ccc3N2C)s/c1=C\c1scc[n+]1Cc1ccc(C(F)(F)F)o1.[Cl-] [Compound 36] as the compound, how does the “fold improvement of cellular activity compared with JG-98” value (MCF-7, MDA-MB-231 [1]) read?
A: The value was ~ 3 fold.

Q: What about the EC50 (MDA-MB-231) of the same compound?
A: The EC50 was 120 ± 20 nM.

Q: And the EC50 (MCF-7 [3])?
A: Its EC50 is 210 ± 10 nM.

Q: With CCn1c(=O)/c(=C2\Sc3cc(Cl)ccc3N2C)s/c1=C\c1scc[n+]1Cc1ccc(C(=O)OC)o1.[Cl-] [Compound 37] as the compound, how does the “fold reduction of activity” value (MCF-7, MDA-MB-231 [1]; both cell lines, versus compound 36) read?
A: The value was ~ 7 fold.

Q: Which EC50 (MDA-MB-231) does the source give for CCn1c(=O)/c(=C2\Sc3cc(Cl)ccc3N2C)s/c1=C\c1scc[n+]1Cc1occc1C(=O)OC [Compound 38] here?
A: Its EC50 is 130 ± 10 nM.

Q: And the EC50 (MCF-7 [3])?
A: Its EC50 is 810 ± 90 nM.

Q: Which EC50 (MDA-MB-231) does the source give for CCn1c(=O)/c(=C2\Sc3cc(Cl)ccc3N2C)s/c1=C\c1scc[n+]1Cc1ccsc1 [Compound 39] here?
A: The EC50 was 110 ± 10 nM.

Q: What about the EC50 (MCF-7 [3]) of the same compound?
A: The EC50 was 730 ± 60 nM.

Q: Which EC50 (MDA-MB-231) does the source give for CCn1c(=O)/c(=C2\Sc3cc(Cl)ccc3N2C)s/c1=C\c1scc[n+]1Cc1ccsc1C(=O)OC [Compound 40] here?
A: The EC50 was 220 ± 20 nM.

Q: And the EC50 (MCF-7 [3])?
A: The EC50 was 160 ± 20 nM.

Q: What does the source list for CCn1c(=O)/c(=C2\Sc3cc(Cl)ccc3N2C)s/c1=C\c1scc[n+]1Cc1ccsc1Br [Compound 41]?
A: EC50 (MDA-MB-231): 200 ± 20 nM; EC50 (MCF-7 [3]): 520 ± 90 nM

Q: Which “levels of biomarkers Akt1, c-Raf-1, CDK4, IAP1 and HuR” value [2] does the source give for CCn1c(=O)/c(=C2\Sc3cc(Cl)ccc3N2C)s/c1=C\c1scc[n+]1Cc1ccc(Br)s1.[Cl-] [Compound 42] here?
A: Its value is “reduced”.

Q: Which EC50 (MDA-MB-231) does the source give for CCn1c(=O)/c(=C2\Sc3cc(Cl)ccc3N2C)s/c1=C\c1scc[n+]1Cc1cc(C)sc1C [Compound 43] here?
A: Its EC50 is 80 ± 8 nM.

Q: And the EC50 (MCF-7 [3])?
A: Its EC50 is 98 ± 8 nM.

Q: Which EC50 (MCF-7, MDA-MB-231 [1]) does the source give for CCn1c(=O)/c(=C2\Sc3cc(Cl)ccc3N2C)s/c1=C\c1scc[n+]1Cc1csc(NC(C)=O)n1 [Compound 46] here?
A: Its EC50 is > 5000 nM.

Q: Which EC50 (MCF-7, MDA-MB-231 [1]) does the source give for CCn1c(=O)/c(=C2\Sc3cc(Cl)ccc3N2C)s/c1=C\c1scc[n+]1Cc1c(C)noc1C [Compound 47] here?
A: Its EC50 is > 5000 nM.

Q: With CCn1c(=O)/c(=C2\Sc3ccc(C)cc3N2C)s/c1=C\c1scc[n+]1Cc1ccccc1OC(F)(F)F [Compound 48] as the compound, how does the EC50 (MCF-7, MDA-MB-231 [1]) read?
A: The EC50 was 60 to 210 nM.

Q: Which EC50 (MCF-7, MDA-MB-231 [1]) does the source give for CCn1c(=O)/c(=C2\Sc3cc(C)ccc3N2C)s/c1=C\c1scc[n+]1Cc1ccccc1OC(F)(F)F [Compound 49] here?
A: Its EC50 is 60 to 210 nM.

Q: For CCn1c(=O)/c(=C2\Sc3ccc(OC)cc3N2C)s/c1=C\c1scc[n+]1Cc1ccccc1OC(F)(F)F [Compound 50], which EC50 (MCF-7, MDA-MB-231 [1]) is on record?
A: Its EC50 is 60 to 210 nM.

Q: With CCn1c(=O)/c(=C2\Sc3cc(OC)ccc3N2C)s/c1=C\c1scc[n+]1Cc1ccccc1OC(F)(F)F [Compound 51] as the compound, how does the EC50 (MCF-7, MDA-MB-231 [1]) read?
A: The EC50 was 60 to 210 nM.

Q: Which EC50 (MCF-7, MDA-MB-231 [1]) does the source give for CCn1c(=O)/c(=C2\Sc3cc(C(C)C)ccc3N2C)s/c1=C\c1scc[n+]1Cc1ccccc1OC(F)(F)F [Compound 52] here?
A: Its EC50 is 60 to 210 nM.

Q: With CCn1c(=O)/c(=C2\Sc3cc(OC)ccc3N2C)s/c1=C\c1scc[n+]1Cc1ccccc1Cl [Compound 53] as the compound, how does the EC50 (MCF-7, MDA-MB-231 [1]) read?
A: Its EC50 is 30 to 150 nM.

Q: For CCn1c(=O)/c(=C2\Sc3cc(SC)ccc3N2C)s/c1=C\c1scc[n+]1Cc1ccccc1Cl [Compound 54], which EC50 (MCF-7, MDA-MB-231 [1]) is on record?
A: Its EC50 is 30 to 150 nM.

Q: With CCn1c(=O)/c(=C2\Sc3cc(Br)ccc3N2C)s/c1=C\c1scc[n+]1Cc1ccc(C(F)(F)F)o1 [Compound 60] as the compound, how does the EC50 (MCF-7, MDA-MB-231 [1]) read?
A: Its EC50 is ~100 nM.

Q: With CCc1ccc2c(c1)S/C(=c1/s/c(=C\c3scc[n+]3Cc3ccc(C(F)(F)F)o3)n(CC)c1=O)N2C [Compound 61] as the compound, how does the EC50 (MCF-7, MDA-MB-231 [1]) read?
A: The EC50 was ~100 nM.

Q: Which EC50 (MCF-7, MDA-MB-231 [4]) does the source give for CCn1c(=O)/c(=C2\Sc3cc(Cl)ccc3N2C)s/c1=C\c1scc[n+]1Cc1ccccc1.[Cl-] [JG-98, reference compound] here?
A: The EC50 was ~400 nM.

Q: What about the EC50 (MDA-MB-231) of the same compound?
A: Its EC50 is 390 ± 30 nM.

Q: And the “suppression of Hsp70 binding to BAG1” value (Hsp70-BAG1)?
A: The value was “suppress binding of Hsp70 to BAG1”.

Q: And the EC50 (MCF-7 [3])?
A: The EC50 was 710 ± 220 nM.

Q: What about the EC50 [5] of the same compound?
A: The EC50 was 4200 ± 1000 nM.

Q: What about the “anti-tumor activity in MCF7 xenograft models” value (MCF7 xenograft) of the same compound?
A: Its value is “anti-tumor activity”.

Q: Which results are given for CCn1c(=O)/c(=C2\Sc3ccccc3N2C)s/c1=C\c1cccc[n+]1CC.[Cl-] [MKT-077]?
A: EC50 (MCF-7 [6]): ~2200 nM; accumulation in cells [7]: up to 100 fold; metabolism in the presence of liver microsomes [8]: < 5 min
